Data from patent US20090311249A1, “Capecitabine Combination Therapy” (priority 2006, published 2009).

Experiments:
[1] = Phase 1b trial: pharmacokinetics of CAPE and its key metabolites in plasma; assay type: in vivo, human; details: AP23573 co-administered with CAPE
Source text: Planned pharmacokinetic (PK) and pharmacodynamic (PD) studies included: analysis of plasma, peripheral blood mononuclear cells (PBMC), skin, and tumor samples for effects on mTOR associated pathways*, VEGF* levels and the metabolism of CAPE and fluoropyrimidines (results of studies marked with a “*” are not presented herein).

[2] = Phase I and phase 2 single-agent trials of AP23573; assay type: in vivo, human; details: other dosing schedules
[3] = tested on: VEGF production in tumor cells; details: in vitro; cited from earlier work
VEGF = details: patients treated with AP23573; cited from earlier work
[4] = In vitro combination experiments of AP23573 with cytotoxics; assay type: cell-based; details: with several cytotoxics including 5-fluorouracil (5FU)

Row | Structure (SMILES) | pharmacokinetics of 5FU [1] | dose limiting toxicity [2] | effect on VEGF production [3] | VEGF levels (VEGF) | combination effect in vitro [4]
1 | O=c1[nH]cc(F)c(=O)[nH]1 [5FU, 5-fluorouracil] | not be impacted | – | – | – | –
2 | CO[C@H]1C[C@@H]2CC[C@@H](C)[C@@](O)(O2)C(=O)C(=O)N2CCCC[C@H]2C(=O)O[C@H]([C@H](C)C[C@@H]2CC[C@@H](OP(C)(C)=O)[C@H](OC)C2)CC(=O)[C@H](C)/C=C(\C)[C@@H](O)[C@@H](OC)C(=O)[C@H](C)C[C@H](C)/C=C/C=C/C=C/1C [AP23573] | – | oral mucositis | inhibits VEGF production | reduced VEGF levels | at least additive
